Test results as given in US20220339135A1, “COMPOSITIONS AND METHODS FOR MODULATING AN INFLAMMATORY RESPONSE” (Enzychem Lifesciences Corporation, priority 2019, published 2022).

Assays:
[1] = tested on: chemo-radiation and scratch induced oral mucositis; assay: Chemo-radiation and scratch induced oral mucositis; type: in vivo, mice; details: PLAG 250 mg/kg oral, n=7
Description: For radiation therapy, mice received 1 Gy of gamma radiation with mice whole body. Mice were intraperitoneally administered 5-FU (Sigma Aldrich) at 50 mg/kg. For facilitating the risk of infection, mice were anesthetized with 2,2,2-tribromoethanol (150 mg/kg, Sigma Aldrich) by intraperitoneal injection, and then tongue was scratched 0.2 cm wound on a third of side at using the tip of an 18-gauge needle with an equal force and depth. PLAG (Enzychem Lifesciences) was stored in −80° C. refrigerator and was administered orally once with 250 mg/kg. Formulations were aggressively mixed to be cloudiness and were injected within 10 minutes.
The tongue was scratched 0.2 cm wound on a third of side at using the tip of an 18-gauge needle with an equal force and depth on Day 0, 7, 10, and 16. Mice were received 1 Gy of gamma radiation on Day 2 and 5-FU was administered intraperitoneally in a dose of 50 mg/kg on Days 4. For the group receiving PLAG, 250 mg/kg of PLAG was administered orally once daily. To check the oral mucositis, mice were anesthetized with 2,2,2-tribromoethanol (150 mg/kg, Sigma Aldrich) by intraperitoneal injection on Day 7, 10, 14, 18. Each group contained seven mice.

[2] = [14C] PLAG radioactivity in blood and lymph fluid; type: in vivo, rats; details: single oral [14C] PLAG
Description: Quantification of PLAG in blood and lymph fluid was performed in Mitsubishi Chemical Medicine Corporation (Japan) by radioactivity analysis. [^14C] PLAG was synthesized by the LSI Medience Corporation (Kumamoto, Japan). The specific activities were 348.9 kBq/mg. The purity of the compound was 99.7%. The pharmacokinetics of [^14C] PLAG were determined in Crl: CD (SD) rats (Charles River Laboratories Japan, Inc.). Rats received [^14C] PLAG at 100 mg/5 mL/kg (dosing radioactivity: 5 MBq/kg) via the oral route. To determine radioactivity concentration in lymph fluid, the abdominal large thoracic duct-cannulated animals were fitted with collars while under isoflurane anesthesia and were subjected to the administration at least 30 minutes after collar fitting. […] Each of the collected samples was measured for radioactivity. Blood was collected from the subclavian vein and used to determine the radioactivity. […] Radioactivity was measured by LSC (Tri-Carb 2300TR. Perkin Elmer, Inc) with the tSIE (transformed spectral index of external standard) method for the quenching correction.
Quantification of PLAG in blood and lymph fluid was performed in Mitsubishi Chemical Medicine Corporation (Japan) by radioactivity analysis. […] PLAG were determined in Crl: CD (SD) rats (Charles River Laboratories Japan, Inc.). […] PLAG at 100 mg/5 mL/kg (dosing radioactivity: 5 MBq/kg) via the oral route. […]

[3] = tested on: HMGB1, S100A8, S100A9, LDH in supernatant of THP-1 cells; assay: MSU-induced DAMP and LDH release; type: cell-based, human; details: PLAG 100 μg/ml, MSU 400 μg/ml
Description: THP-1 cells were divided into two groups: 1) MSU treated group and 2) MSU/PLAG treated group. For MSU treated group, THP-1 cells were stimulated with monosodium urate (MSU) crystal (400 μg/ml) for 0, 15, 30, 60 minutes. For MSU/PLAG treated group, THP-1 cells were pre-incubated with PLAG (100 μg/ml) for 1 hour and then stimulated with monosodium urate (MSU) crystal (400 μg/ml) for 0, 15, 30, 60 minutes. Then, cells were centrifuged, and the supernatant was harvested. Add 50 μL 5×SDS sample buffer to 200 μL supernatant of THP-1 cells. Proteins from each sample were separated by sodium dodecyl sulfate (SDS)-polyacrylamide gel electrophoresis on 8% polyacrylamide gels and the proteins were blotted onto a PVDF membrane (Millipore Corporation, Germany). The membrane was blocked with 5% non-fat dried milk (BD bioscience) in PBS containing 0.05% Tween-20 (Calbiochem) for 1 hour. The membrane was incubated with anti-high mobility group box 1 (HMGB1) (abcam), anti-S100A9 (abcam) at 4° C. overnight. After washing with PBS containing 0.05% Tween-20, the membrane was stained with goat anti-rabbit IgG peroxidase (ENZO). Target proteins were detected with Immobilon Western Chemiluminescent HRP Substrate (Millipore Corporation). Lactate dehydrogenase (LDH) of Supernatant was measured using the LDH assay kit.

[4] = tested on: p47phox in Raw264.7 cells; assay: LPS-induced p47phox recruitment; type: cell-based; details: LPS/PLAG treatment
Description: Raw264.7 cells were divided into two groups: 1) LPS treated group and 2) LPS/PLAG treated group. For the LPS treated group, cells were treated with 100 μg/ml of DMSO (as solvent control) for 1 hour and treated with LPS (100 ng/ml) for 15, 30, 60, and 120 minutes. For LPS/PLAG treated group, cells were treated with PLAG (100 μg/ml) for 1 hour and treated with LPS (100 ng/ml) for 15, 30, 60, and 120 minutes. Cells were then fixed and stained using rat anti-TLR4/MD2 antibody with Alexa488-conjugated anti-rat IgG secondary antibody. These were analyzed by confocal microscopy. Raw264.7 cells stimulated under the same conditions were fixed, permeabilized, and stained with CM-H2DCFDA, the LYSO-ID® Lysosomal Detection Kit and rabbit anti-p47phox. Confocal microscopy was performed; all data shown represent one experiment performed in triplicate.

[5] = Micelle particle size by DLS and TEM; type: physicochemical; details: micelles
Description: The formation of micelles composed of PLAG or POPC was prepared in RPMI1640 medium by vigorous stirring at a final concentration of 10 mg/ml. The particle size of PLAG and POPC micelles was measured by dynamic light scattering (Zetasizer 3000HS, Malvern Instruments Ltd., UK). The morphological examination of the micelles was performed by transmission electron microscopy (TEM) by dropping the samples into the carbon films on the copper grid for viewing with 2% (weight per volume) phosphotungstic acid staining.

Compound: CCCCC/C=C\C/C=C\CCCCCCCC(=O)OC(COC(C)=O)COC(=O)CCCCCCCCCCCCCCC (racemic) [PLAG, 1-palmitoyl-2-linoleoyl-3-acetylglycerol]
- survival rate after 18 days [1]: 85%
- PLAG in lymphatic vessel versus blood vessel [2]: More PLAG was detected in the lymphatic vessel than blood vessel
- time of highest concentration ([2]; blood and lymph fluid): 8 h
- release of MSU crystal-induced HMGB1, S100A8, S100A9 and LDH to the supernatant [3]: modulated the release
- p47phox recruitment initiated [4]: 15 min
- return to homeostatic levels of p47phox [4]: 60 min
- average diameter (DLS) [5]: 107.6 nm
- particle shape (TEM) [5]: spherical shape
